Results published in patent US9180115B2, “Cyclohexylamines” (Asana Biosciences, LLC, priority 2011, dated 2015).

Tests used:
[1] = tested on: sodium current in DRG neurons; details: co-applied with 1 μM capsaicin, whole-cell voltage clamp; read-out: in vitro apparent affinity (IC50) for blocking sodium current in DRG neurons; cited from earlier work
isolated detrusor muscle = assay: In vitro assay for effect of compounds on bladder detrusor muscle (EFS-induced contractions); set-up: species or system guinea-pigs; details: cumulative concentration-response

For CC[N+](CC)(CC)CC(=O)Nc1c(C)cccc1C [QX-314], which IC50 [1] is on record?
The IC50 was 30 µM.

For CCN(CC)CC(=O)Nc1c(C)cccc1C [lidocaine], which EFS-induced detrusor contractions (isolated detrusor muscle) is on record?
Its EFS-induced detrusor contractions is “concentration-dependent inhibitions of EFS-induced detrusor contractions”.
